Laboratory results: ChEMBL document CHEMBL5723583, “Data for DCP probe BAY-9835” (2024)
Calls of active or inactive are those of the source. No cut-off for these calls is given here.

Legend:
[1] = biological target: Angiotensin-converting enzyme (Homo sapiens) (UniProt P12821); experiment: Inhibition of Peptidase, Angiotensin Converting Enzyme at 10.0 µM in the Eurofins-Panlabs selectivity screen; details: Oryctolagus cuniculus; Compound concentration 10.0 uM
[2] = biological target: Beta-2 adrenergic receptor (Homo sapiens) (UniProt P07550); experiment: Inhibition of Adrenergic beta2 at 10.0 µM in the Eurofins-Panlabs selectivity screen; details: Compound concentration 10.0 uM
[3] = biological target: Muscarinic acetylcholine receptor M3 (Homo sapiens) (UniProt P20309); experiment: Inhibition of Muscarinic M3 at 10.0 µM in the Eurofins-Panlabs selectivity screen; details: Compound concentration 10.0 uM
Chain of Muscarinic acetylcholine receptor M3 (Homo sapiens) (P20309 whole entry, looked up): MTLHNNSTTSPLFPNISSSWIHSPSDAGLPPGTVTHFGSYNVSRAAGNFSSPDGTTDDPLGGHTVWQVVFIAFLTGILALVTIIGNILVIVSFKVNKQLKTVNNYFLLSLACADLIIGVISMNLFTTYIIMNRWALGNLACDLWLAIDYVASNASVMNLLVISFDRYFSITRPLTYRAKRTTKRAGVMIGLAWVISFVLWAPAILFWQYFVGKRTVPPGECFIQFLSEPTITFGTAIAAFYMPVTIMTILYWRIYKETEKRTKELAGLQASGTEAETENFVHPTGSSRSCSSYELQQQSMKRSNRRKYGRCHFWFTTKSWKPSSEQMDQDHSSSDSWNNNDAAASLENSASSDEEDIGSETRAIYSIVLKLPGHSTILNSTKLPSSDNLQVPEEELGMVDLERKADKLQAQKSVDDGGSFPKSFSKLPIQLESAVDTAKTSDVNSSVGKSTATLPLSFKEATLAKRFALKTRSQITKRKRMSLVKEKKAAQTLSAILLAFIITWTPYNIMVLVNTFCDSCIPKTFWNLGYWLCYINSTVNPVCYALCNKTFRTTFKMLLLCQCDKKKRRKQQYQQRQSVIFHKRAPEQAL

[4] = biological target: Histamine H3 receptor (Homo sapiens) (UniProt Q9Y5N1); experiment: Inhibition of Histamine H3 at 10.0 µM in the Eurofins-Panlabs selectivity screen; details: Compound concentration 10.0 uM
[5] = biological target: Polyunsaturated fatty acid lipoxygenase ALOX15 (Homo sapiens) (UniProt P16050); experiment: Inhibition of Lipoxygenase 15-LO at 10.0 µM in the Eurofins-Panlabs selectivity screen; details: Compound concentration 10.0 uM
[6] = biological target: Androgen receptor (Homo sapiens) (UniProt P10275); experiment: Inhibition of Androgen (Testosterone) at 10.0 µM in the Eurofins-Panlabs selectivity screen; details: Compound concentration 10.0 uM
[7] = biological target: Gamma-aminobutyric acid type B receptor subunit 1 (Homo sapiens) (UniProt Q9UBS5); experiment: Inhibition of GABAB, Non-Selective at 10.0 µM in the Eurofins-Panlabs selectivity screen; details: Rattus norvegicus; Compound concentration 10.0 uM
[8] = biological target: A disintegrin and metalloproteinase with thrombospondin motifs 12 (Homo sapiens, UniProt P58397); experiment: Biochemical enzymatic FRET assay (hADAMTS12) ( FRET substrate, HiLyteFluor-488 DELSSMVLELRGLRT-K(QXL520)-E-NH2 (custom synthesis by Anaspec) was used.)
[9] = biological target: Cannabinoid receptor 1 (Homo sapiens) (UniProt P21554); experiment: Inhibition of Cannabinoid CB1 at 10.0 µM in the Eurofins-Panlabs selectivity screen; details: Compound concentration 10.0 uM
Chain of Cannabinoid receptor 1 (Homo sapiens) (P21554 whole entry): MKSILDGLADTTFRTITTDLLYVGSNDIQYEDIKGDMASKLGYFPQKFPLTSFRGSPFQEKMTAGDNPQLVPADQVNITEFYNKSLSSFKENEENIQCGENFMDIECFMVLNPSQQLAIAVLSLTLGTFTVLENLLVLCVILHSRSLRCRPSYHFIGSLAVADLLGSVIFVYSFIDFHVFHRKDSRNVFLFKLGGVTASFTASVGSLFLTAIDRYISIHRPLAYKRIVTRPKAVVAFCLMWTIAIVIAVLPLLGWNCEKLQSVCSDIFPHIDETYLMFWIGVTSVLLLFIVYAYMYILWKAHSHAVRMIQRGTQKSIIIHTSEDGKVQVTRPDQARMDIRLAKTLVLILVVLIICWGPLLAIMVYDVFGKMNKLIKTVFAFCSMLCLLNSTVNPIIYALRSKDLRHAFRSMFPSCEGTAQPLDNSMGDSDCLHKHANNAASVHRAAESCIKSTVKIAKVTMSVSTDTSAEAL

[10] = biological target: Glutamate NMDA receptor (Rattus norvegicus) (UniProt P35439+Q00959+Q00960+Q00961+Q62645+Q8VHN2+Q9R1M7); experiment: Inhibition of Glutamate, NMDA, Glycine at 10.0 µM in the Eurofins-Panlabs selectivity screen; format: protein-complex assay; details: Compound concentration 10.0 uM
[11] = biological target: Delta-type opioid receptor (Homo sapiens) (UniProt P41143); experiment: Inhibition of Opiate delta1 (OP1, DOP) at 10.0 µM in the Eurofins-Panlabs selectivity screen; details: Compound concentration 10.0 uM
[12] = biological target: GABA-A receptor; anion channel (Rattus norvegicus) (UniProt O09028+P15431+P18506+P18508+P19969+P20236+P23574+P23576+P28471+P28473+P30191+P62813+P63079+P63138+Q91ZM7+Q9ES14); experiment: Inhibition of GABAA, Flunitrazepam, Central at 10.0 µM in the Eurofins-Panlabs selectivity screen; format: protein-complex assay; details: Compound concentration 10.0 uM
[13] = biological target: Mucosa-associated lymphoid tissue lymphoma translocation protein 1 (Homo sapiens, UniProt Q9UDY8); experiment: IC50 of MALT1 at 1.0 µM in the Bayer in-house protease panel
[14] = biological target: D(3) dopamine receptor (Homo sapiens) (UniProt P35462); experiment: Inhibition of Dopamine D3 at 10.0 µM in the Eurofins-Panlabs selectivity screen; details: Compound concentration 10.0 uM
[15] = biological target: B2 bradykinin receptor (Homo sapiens) (UniProt P30411); experiment: Inhibition of Bradykinin B2 at 10.0 µM in the Eurofins-Panlabs selectivity screen; details: Compound concentration 10.0 uM
[16] = biological target: Cathepsin B (Homo sapiens, UniProt P07858); experiment: IC50 of Cathepsin B at 1.0 µM in the Bayer in-house protease panel
[17] = biological target: 5-hydroxytryptamine receptor 2C (Homo sapiens) (UniProt P28335); experiment: Inhibition of Serotonin (5-Hydroxytryptamine) 5-HT2C at 10.0 µM in the Eurofins-Panlabs selectivity screen; details: Compound concentration 10.0 uM
[18] = biological target: D(1A) dopamine receptor (Homo sapiens) (UniProt P21728); experiment: Inhibition of Dopamine D1 at 10.0 µM in the Eurofins-Panlabs selectivity screen; details: Compound concentration 10.0 uM
[19] = biological target: Equilibrative nucleoside transporter 1/2/3/4 (Homo sapiens) (UniProt Q99808+Q7RTT9+Q14542+Q9BZD2); experiment: Inhibition of Transporter, Adenosine at 10.0 µM in the Eurofins-Panlabs selectivity screen; format: protein assay; details: Compound concentration 10.0 uM
[20] = biological target: Thromboxane-A synthase (Homo sapiens) (UniProt P24557); experiment: Inhibition of Thromboxane Synthase at 10.0 µM in the Eurofins-Panlabs selectivity screen; details: Compound concentration 10.0 uM
Chain of Thromboxane-A synthase (Homo sapiens) (P24557 whole entry): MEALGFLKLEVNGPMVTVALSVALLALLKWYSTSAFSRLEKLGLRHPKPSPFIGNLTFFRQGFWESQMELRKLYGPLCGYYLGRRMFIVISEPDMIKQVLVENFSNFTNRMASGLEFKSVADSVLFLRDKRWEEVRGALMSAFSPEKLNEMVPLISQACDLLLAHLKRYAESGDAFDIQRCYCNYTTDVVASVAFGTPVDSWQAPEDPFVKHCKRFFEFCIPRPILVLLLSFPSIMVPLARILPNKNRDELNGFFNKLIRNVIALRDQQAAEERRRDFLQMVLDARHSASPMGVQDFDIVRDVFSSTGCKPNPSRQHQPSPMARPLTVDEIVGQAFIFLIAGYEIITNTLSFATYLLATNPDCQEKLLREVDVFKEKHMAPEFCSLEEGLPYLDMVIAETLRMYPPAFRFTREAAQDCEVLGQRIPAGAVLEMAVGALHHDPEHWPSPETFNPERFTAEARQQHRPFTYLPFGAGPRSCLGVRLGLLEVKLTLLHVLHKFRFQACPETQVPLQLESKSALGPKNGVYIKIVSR

[21] = biological target: Sodium-dependent noradrenaline transporter (Homo sapiens) (UniProt P23975); experiment: Inhibition of Transporter, Norepinephrine (NET) at 10.0 µM in the Eurofins-Panlabs selectivity screen; details: Compound concentration 10.0 uM
Chain of Sodium-dependent noradrenaline transporter (Homo sapiens) (P23975 whole entry, the tested form may be a part): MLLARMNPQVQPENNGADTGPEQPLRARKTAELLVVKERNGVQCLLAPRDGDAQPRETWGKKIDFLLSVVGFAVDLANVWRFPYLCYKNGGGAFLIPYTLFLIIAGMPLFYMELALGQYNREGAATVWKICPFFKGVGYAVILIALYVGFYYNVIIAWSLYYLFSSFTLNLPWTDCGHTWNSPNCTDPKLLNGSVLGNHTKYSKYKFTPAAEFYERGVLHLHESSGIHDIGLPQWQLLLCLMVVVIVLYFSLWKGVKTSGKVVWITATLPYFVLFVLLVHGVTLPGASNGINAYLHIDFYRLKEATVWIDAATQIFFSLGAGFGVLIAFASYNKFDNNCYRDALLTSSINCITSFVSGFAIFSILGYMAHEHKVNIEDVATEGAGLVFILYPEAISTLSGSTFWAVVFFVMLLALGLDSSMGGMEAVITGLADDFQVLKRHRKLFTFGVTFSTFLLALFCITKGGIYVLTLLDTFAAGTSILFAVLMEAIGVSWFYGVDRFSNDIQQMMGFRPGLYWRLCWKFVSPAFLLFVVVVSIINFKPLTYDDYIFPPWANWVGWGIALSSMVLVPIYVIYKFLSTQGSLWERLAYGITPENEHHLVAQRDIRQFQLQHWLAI

[22] = biological target: Disintegrin and metalloproteinase domain-containing protein 10 (Homo sapiens, UniProt O14672); experiment: IC50 of hADAM10 at 1.0 µM in the Bayer in-house protease panel
Chain of Disintegrin and metalloproteinase domain-containing protein 10 (O14672 whole entry, the tested form may be a part): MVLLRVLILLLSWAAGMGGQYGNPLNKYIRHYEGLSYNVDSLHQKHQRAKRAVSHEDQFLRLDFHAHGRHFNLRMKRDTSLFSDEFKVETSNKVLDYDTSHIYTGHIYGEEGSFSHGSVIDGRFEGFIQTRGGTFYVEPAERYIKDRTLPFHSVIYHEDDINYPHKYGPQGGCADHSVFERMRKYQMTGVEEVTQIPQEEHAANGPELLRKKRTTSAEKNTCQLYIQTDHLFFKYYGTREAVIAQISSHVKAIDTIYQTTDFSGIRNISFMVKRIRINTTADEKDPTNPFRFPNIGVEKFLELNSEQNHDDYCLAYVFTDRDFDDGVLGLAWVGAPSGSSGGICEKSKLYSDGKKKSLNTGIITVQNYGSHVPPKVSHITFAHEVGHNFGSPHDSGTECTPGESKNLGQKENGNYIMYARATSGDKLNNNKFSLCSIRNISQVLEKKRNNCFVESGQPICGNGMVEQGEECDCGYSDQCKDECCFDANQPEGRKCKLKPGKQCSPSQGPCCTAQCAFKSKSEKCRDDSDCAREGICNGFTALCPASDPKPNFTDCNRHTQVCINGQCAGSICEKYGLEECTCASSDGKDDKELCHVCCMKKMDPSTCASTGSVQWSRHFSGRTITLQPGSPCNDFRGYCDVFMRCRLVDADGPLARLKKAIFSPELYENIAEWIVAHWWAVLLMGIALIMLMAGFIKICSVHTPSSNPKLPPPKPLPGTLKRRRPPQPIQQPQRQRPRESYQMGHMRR

[23] = biological target: Motilin receptor (Homo sapiens) (UniProt O43193); experiment: Inhibition of Motilin at 10.0 µM in the Eurofins-Panlabs selectivity screen; details: Compound concentration 10.0 uM
[24] = biological target: Glutamate receptor ionotropic, kainate (Rattus norvegicus) (UniProt P22756+Q01812+P42260+P42264+Q63273); experiment: Inhibition of Glutamate, Kainate at 10.0 µM in the Eurofins-Panlabs selectivity screen; format: protein-complex assay; details: Compound concentration 10.0 uM
[25] = biological target: B1 bradykinin receptor (Homo sapiens) (UniProt P46663); experiment: Inhibition of Bradykinin B1 at 10.0 µM in the Eurofins-Panlabs selectivity screen; details: Compound concentration 10.0 uM
Chain of B1 bradykinin receptor (Homo sapiens) (P46663 whole entry): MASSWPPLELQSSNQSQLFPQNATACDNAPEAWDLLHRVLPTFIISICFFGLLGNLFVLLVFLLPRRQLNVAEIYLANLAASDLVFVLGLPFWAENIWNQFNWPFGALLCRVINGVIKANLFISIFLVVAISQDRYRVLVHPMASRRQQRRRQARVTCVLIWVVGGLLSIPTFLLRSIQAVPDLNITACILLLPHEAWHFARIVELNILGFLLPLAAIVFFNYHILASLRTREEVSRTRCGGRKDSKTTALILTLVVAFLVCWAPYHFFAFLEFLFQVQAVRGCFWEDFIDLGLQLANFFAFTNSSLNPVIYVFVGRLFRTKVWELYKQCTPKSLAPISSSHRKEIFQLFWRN

[26] = biological target: Purinergic P2Y (Rattus norvegicus) (UniProt O35811+Q9EPX4+P49651+Q63371+P41232+O35881+Q6GUG4); experiment: Inhibition of Purinergic P2Y at 10.0 µM in the Eurofins-Panlabs selectivity screen; format: protein assay; details: Compound concentration 10.0 uM
[27] = biological target: Muscarinic acetylcholine receptor M1 (Homo sapiens) (UniProt P11229); experiment: Inhibition of Muscarinic M1 at 10.0 µM in the Eurofins-Panlabs selectivity screen; details: Compound concentration 10.0 uM
[28] = biological target: Kappa-type opioid receptor (Homo sapiens) (UniProt P41145); experiment: Inhibition of Opiate kappa (OP2, KOP) at 10.0 µM in the Eurofins-Panlabs selectivity screen; details: Compound concentration 10.0 uM
Chain of Kappa-type opioid receptor (Homo sapiens) (P41145 whole entry): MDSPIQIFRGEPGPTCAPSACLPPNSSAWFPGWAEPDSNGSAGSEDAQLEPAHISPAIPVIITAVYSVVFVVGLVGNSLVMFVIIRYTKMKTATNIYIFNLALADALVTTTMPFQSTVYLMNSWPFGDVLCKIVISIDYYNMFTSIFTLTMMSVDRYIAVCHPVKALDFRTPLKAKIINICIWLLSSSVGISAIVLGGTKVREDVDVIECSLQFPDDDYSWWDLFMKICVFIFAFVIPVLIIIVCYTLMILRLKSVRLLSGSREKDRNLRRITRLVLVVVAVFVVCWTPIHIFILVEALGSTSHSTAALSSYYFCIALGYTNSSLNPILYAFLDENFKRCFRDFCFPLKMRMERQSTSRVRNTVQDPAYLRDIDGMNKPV

[29] = biological target: Cathepsin S (Homo sapiens, UniProt P25774); experiment: IC50 of Cathepsin S at 1.0 µM in the Bayer in-house protease panel
[30] = biological target: Monoamine oxidase B (MAO-B) (Homo sapiens, UniProt P27338); experiment: Inhibition of Monoamine Oxidase MAO-B at 10.0 µM in the Eurofins-Panlabs selectivity screen; details: compound concentration 10 uM
Chain of Monoamine oxidase B (MAO-B) (P27338 whole entry): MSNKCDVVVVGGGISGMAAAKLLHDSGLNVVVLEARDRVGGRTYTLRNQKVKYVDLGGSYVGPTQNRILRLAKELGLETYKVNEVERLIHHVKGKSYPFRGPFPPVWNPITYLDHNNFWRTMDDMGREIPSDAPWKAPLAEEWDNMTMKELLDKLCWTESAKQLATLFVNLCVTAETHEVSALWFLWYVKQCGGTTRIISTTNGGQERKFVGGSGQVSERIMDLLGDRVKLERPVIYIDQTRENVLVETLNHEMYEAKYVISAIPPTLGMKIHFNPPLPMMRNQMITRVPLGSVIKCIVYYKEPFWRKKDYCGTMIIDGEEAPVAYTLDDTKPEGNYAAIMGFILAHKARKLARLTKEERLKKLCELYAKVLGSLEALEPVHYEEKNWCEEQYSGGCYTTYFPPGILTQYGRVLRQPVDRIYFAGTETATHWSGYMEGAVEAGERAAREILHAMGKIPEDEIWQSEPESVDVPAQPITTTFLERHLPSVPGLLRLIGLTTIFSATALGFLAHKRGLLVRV

[31] = biological target: Prostaglandin G/H synthase 1 (Homo sapiens) (UniProt P23219); experiment: Inhibition of Cyclooxygenase COX-1 at 10.0 µM in the Eurofins-Panlabs selectivity screen; details: Compound concentration 10.0 uM
[32] = biological target: Mu-type opioid receptor (Homo sapiens) (UniProt P35372); experiment: Inhibition of Opiate mu (OP3, MOP) at 10.0 µM in the Eurofins-Panlabs selectivity screen; details: Compound concentration 10.0 uM
Chain of Mu-type opioid receptor (Homo sapiens) (P35372 whole entry): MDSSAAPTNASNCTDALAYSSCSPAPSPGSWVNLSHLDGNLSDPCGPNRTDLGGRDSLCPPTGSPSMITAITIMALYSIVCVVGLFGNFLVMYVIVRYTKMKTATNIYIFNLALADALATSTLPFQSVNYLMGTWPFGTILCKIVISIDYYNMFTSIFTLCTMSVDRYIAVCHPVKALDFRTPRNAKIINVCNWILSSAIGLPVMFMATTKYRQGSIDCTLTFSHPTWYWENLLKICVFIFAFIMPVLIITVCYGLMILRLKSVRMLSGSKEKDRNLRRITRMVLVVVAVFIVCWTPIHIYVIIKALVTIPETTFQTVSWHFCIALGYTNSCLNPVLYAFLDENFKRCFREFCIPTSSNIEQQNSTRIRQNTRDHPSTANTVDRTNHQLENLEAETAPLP

[33] = biological target: Adenosine receptor A3 (Homo sapiens) (UniProt P0DMS8); experiment: Inhibition of Adenosine A3 at 10.0 µM in the Eurofins-Panlabs selectivity screen; details: Compound concentration 10.0 uM
Chain of Adenosine receptor A3 (Homo sapiens) (P0DMS8 whole entry): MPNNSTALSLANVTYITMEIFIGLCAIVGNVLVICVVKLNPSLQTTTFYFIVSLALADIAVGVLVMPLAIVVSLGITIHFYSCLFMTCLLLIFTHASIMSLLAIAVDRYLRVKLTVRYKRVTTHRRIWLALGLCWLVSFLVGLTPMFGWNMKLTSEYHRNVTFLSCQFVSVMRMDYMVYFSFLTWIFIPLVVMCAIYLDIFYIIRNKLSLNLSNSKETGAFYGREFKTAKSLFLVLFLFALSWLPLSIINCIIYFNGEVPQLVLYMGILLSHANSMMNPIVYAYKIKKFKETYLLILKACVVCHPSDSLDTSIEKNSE

SMILES: Cn1nccc1[C@]1(CNC(=O)c2ccc(F)c(F)c2-c2ccc(C(F)(F)F)cc2)NC(=O)NC1=O
- inhibition [1]: 3%
- inhibition [2]: -9%
- inhibition [3]: 9%
- inhibition [4]: 6%
- inhibition [5]: -6%
- inhibition [6]: 3%
- inhibition [7]: 3%
- IC50 [8]: 0.03 µM (active)
- inhibition [9]: -3%
- inhibition [10]: -4%
- inhibition [11]: 18%
- inhibition [12]: -6%
- IC50 [13]: > 100 µM
- inhibition [14]: 2%
- inhibition [15]: -6%
- IC50 [16]: > 100 µM
- inhibition [17]: -1%
- inhibition [18]: -1%
- inhibition [19]: 11%
- inhibition [20]: 11%
- inhibition [21]: 6%
- IC50 [22]: 32.8 µM
- inhibition [23]: 3%
- inhibition [24]: 12%
- inhibition [25]: 1%
- inhibition [26]: -4%
- inhibition [27]: -6%
- inhibition [28]: -4%
- IC50 [29]: > 100 µM
- inhibition at 10 µM [30]: 10%
- inhibition [31]: -5%
- inhibition [32]: 2%
- inhibition [33]: 0%
